What was measured:
[1] = system: urothelial cells of the bladder; assay: Transfection of murine bladders by intravesical instillation
Procedure: 5-7 week old-female C57BL6 mice were anaesthetized; their bladders were catheterized with 24 G i.v. catheter and flushed with 1×PBS. The DMBC and DNA complex were mixed for 15 min as described above. The final mix was made up to a final volume of 465 μl with 1×PBS for easy instillation and introduced intravesically. Transfection exposure times of 15 min, 30 min, 1 h or 2 h were evaluated. At different time points the bladders were flushed with 1×PBS to remove DNA/DMBC complex. The mice were sacrificed 48 h after treatment. Experiments were done in duplicates.
Cryostat sections of 6 μM in thickness were fixed in 1.25% glutaraldehyde for 10 min at 4° C. followed by incubation with X-gal for 4 h at 37° C. and were counterstained with haematoxylin.

MB49 cells [2] = assay: Nuclear and cytoplasmic accumulation of plasmid DNA by PCR; type: cell-based, murine; settings: nuclear and cytoplasmic extracts
Procedure: Nuclear and cytoplasmic fractionation of transfected cells was carried out using gentle lysis with TNE buffer (10 mM Tris, pH (pH8), 1 mM EDTA, 100 mM NaCl, 1% Igepecal) and left on ice for 10 min followed by centrifugation at 7K for 5 min at 4° C. in a microfuge. The supernatant so produced was labelled the cytoplasmic extract and was transferred to a fresh tube. The nuclear extract were prepared by treatment with a proteinase K digestion (100 mM, NaCl, 10 Mm Tris, pH8, 0.5% SDS 25 mM EDTA and 0.1 mg/ml proteinase K) of the pelleted material overnight at 50° C. Nuclear DNA was extracted with phenol/chloroform twice followed by ethanol precipitation. PCR analysis was carried out as described above.
To determine the localization of DNA following transfection with DOTAP and DMBC, nuclear and cytoplasmic extracts were prepared from transfected cells. The presence of DNA in these extracts was determined using PCR. […] The GADPH gene was used to confirm the presence of nuclear DNA in nuclear extracts and the lack of contamination of cytoplasmic fractions with nuclear DNA.

MB49 cells [3] = assay: Proliferation assay ([14C]-thymidine incorporation), toxicity of transfection agents; type: cell-based, murine
Procedure: Proliferation was assayed by measuring [^14C]-thymidine incorporation. 1×10^4 cells were plated per well in a 96 well flat-bottomed tissue culture plate (Nunc, Rosklide, Denmark) and transfected at optimal conditions as described above for the appropriate length of time (2 h and 24 h exposure), washed and incubated with fresh RPMI 1640 at 37° C. After 32 h, supernatants were removed, and cells were rinsed with 1×PBS. Triplicate wells were incubated with […], [^14]-thymidine (specific activity 56.5 mCi/mmol; Du Pont, Wilmington, Del., USA) for 16 h. The samples were harvested as described in Zhang, Y. et al. (1997) Int. J. Cancer 71:851-7. [^14C]-thymidine incorporation was expressed as a percentage of the incorporation in control cells, which consisted of untransfected cells. The non-parametric Mann-Whitney U test was used to calculate statistical significance. Probability values of p<0.05 were considered statistically significant.
A cell proliferation assay was used to gauge the toxicity of the transfection agents. Relative toxicity was measured by comparing proliferation in transfected and untransfected cells, 48 h after plating. Cells were exposed to the transfection agents for 2 h and 24 h.

MB49 cells [4] = assay: In vitro transfection efficiency of pCMVlacZ, X-gal staining; type: cell-based, murine
human tumor xenografts = settings: used by itself; cited from earlier work

1,2-diacyl-3-trimethylammonium propane [DOTAP]
structure of bladder cells facing the lumen by transmission electron microscopy ([1]; 2 h transfection exposure, vs untransfected control bladder): did not result in any discernible structural difference | transfection of bladder epithelial cells facing the lumen ([1]; intravesical instillation, mice): did not result in efficient transfection | localization of LacZ plasmid DNA (MB49 cells [2]): only found to be in the cytoplasm | 14C-thymidine incorporation, transfected vs untransfected cells (MB49 cells [3]; 2 h exposure): no difference | cell proliferative capacity vs untransfected cells (MB49 cells [3]; 24 h exposure): reduction in cell proliferative capacity but this was not statistically significant

[Ca+2].[Cl-].[Cl-] [Calcium chloride]
ability to transfect MB49 cells (MB49 cells [4]; MB49 cells, pCMVlacZ, 2 h): Neither calcium chloride (0-40 μg) nor DEAE-Dextran (0-2 μg) nor naked DNA could transfect MB49 cells | Transfection efficiency (MB49 cells [4]; MB49 cells, pCMVlacZ, 2 h, percentage of cells stained blue with X-gal): 0%

methyl-β-cyclodextrin
transfection with cyclodextrin lacking cholesterol (MB49 cells [4]; methyl-β-cyclodextrin by itself in combination with DOTAP and DNA, murine bladder epithelial cells): no transfection of murine bladder epithelial cells | anti-tumor effect (human tumor xenografts): had an anti-tumor effect
